Data published in patent US20090137652A1, “METHODS FOR NEUROPROTECTION” (priority 2005, published 2009).

Test system: transient cerebral ischemia middle cerebral artery occlusion (MCAO) rat model
Experiment: Transient cerebral ischemia middle cerebral artery occlusion (MCAO) rat model, infarct volume
Type: in vivo
Details: N 12; for Mean Infarct Volume ± S.E.M., Striatum: vehicle 79.4; for Mean Infarct Volume ± S.E.M., Cortex: vehicle 275.5; for Mean Infarct Volume ± S.E.M., Total Volume: vehicle 354.9
Description: The enantiomer of Formula 7 (test compound) was investigated in the transient cerebral ischemia middle cerebral artery occlusion (MCAO) rat model (as described in Nagasawa H. and Kogure K., Stroke, 1989, 20, 1037; and, Zea Longa E., Weinstein P. R., Carlson S, and Cummins R., Stroke, 1989, 20, 84) using male Wistar rats at 10 and 100 mg/kg (i.v.). MK 801 (Dizocilpine maleate; CAS Registry number 77086-22-7, a commercially available neuroprotectant compound) was used as a positive control (3 mg/kg, i.p.).
Rats (n=12) were randomly allocated to one of four experimental groups and were anesthetized. Blood flow from the internal carotid artery, anterior cerebral artery and posterior cerebral artery into the middle cerebral artery was blocked by this procedure. One hour after blockage, animals were treated over a 1 hour period with vehicle (administered i.v. over the one hour period), control (administered as a single i.p. dose at the start of the one hour period) and two doses of the enantiomer of Formula 7 (administered i.v. over the one hour period). Two hours after blockage, reperfusion was performed.
The animals were sacrificed and […] coronal sections of each brain were prepared. One in every forty sections (i.e. every […]) from the front to the occipital cortex was used to quantify the extent of the cerebral lesion. Slides were prepared using sections stained (according to the Nissl procedure) with cresyl violet and were examined under a light microscope.
Regional ischemic surface areas in the coronal sections of individual rats were determined according to the presence of cells with morphological changes. The areas of neuronal injury or infarction were measured and then added. The cortex and striatum volume were calculated for each animal (total ischemic surface area×0.8 mm (thickness)).
The mean volumes (.+−.S.E.M.) for each animal randomly assigned to the four experimental groups were compared using one-way ANOVA (one way ANOVA is a statistical method which compares 3 or more unmatched groups) followed by Dunnett's t-test (both methods incorporated in Statview 512+software, BarinPower, Calabasas, Calif., USA).

[1] = Formula 7 10 mg/kg i.v. over 1 hour
[2] = Formula 7 100 mg/kg i.v. over 1 hour

SMILES: NC(=O)OC[C@@H](O)c1ccccc1Cl [Formula 7]
- Mean Infarct Volume ± S.E.M., Striatum [1]: 75.9 ± 2.6 mm^3
- Mean Infarct Volume ± S.E.M., Cortex [1]: 201.0 ± 23.9 mm^3
- Mean Infarct Volume ± S.E.M., Total Volume [1]: 276.9 ± 25.4 mm^3
- Mean Infarct Volume ± S.E.M., Striatum [2]: 63.0 ± 5.9^2 mm^3
- Mean Infarct Volume ± S.E.M., Cortex [2]: 98.8 ± 29.5^1 mm^3
- Mean Infarct Volume ± S.E.M., Total Volume [2]: 161.9 ± 34.3^1 mm^3
